Data set [1] in a line: pH of the filtrated solutions (pH indication paper). The format is physicochemical. Particulars: pH of the filtrated solution. As for the experimental part: (§1) Samples are filtered and diluted (in a mixture of acetonitrile/water (1/1)) for LC analysis. Solubilities are calculated with the use of a calibration line. Furthermore, the pH values of the filtrated solutions are determined using pH indication paper.

Data set [2] in a line: Aqueous solubility of the salt crystals (shaking in water for 24 hours, LC analysis). The format is physicochemical. Particulars: appearance of the sample after shaking in water for 24 hours (Slurry or Clear). The method, then: as §1

In the case of `CN1C(=O)c2c(nn(Cc3ccc(-c4cccc(F)n4)cc3)c2Nc2ccccc2)N2C1=N[C@@H]1CCC[C@@H]12.Nc1ccc(C(=O)O)c(O)c1` [Aminosalicylate Salt 1], the pH in data set [1] was 5. The Appearance result in data set [2] was “Slurry”.

`CN1C(=O)c2c(nn(Cc3ccc(-c4cccc(F)n4)cc3)c2Nc2ccccc2)N2C1=N[C@@H]1CCC[C@@H]12.Cc1ccc(S(=O)(=O)O)cc1` [Tosylate Salt 2] gave a pH in data set [1] of 5.

On to `CN1C(=O)c2c(nn(Cc3ccc(-c4cccc(F)n4)cc3)c2Nc2ccccc2)N2C1=N[C@@H]1CCC[C@@H]12.O=S(=O)(O)CCS(=O)(=O)O` [Edisylate Salt 1], for which the pH in data set [1] was 1.

The values are drawn from patent US20250129087A1, “SALT CRYSTALS” (INTRA-CELLULAR THERAPIES, INC., priority 2022, published 2025).
